Data published in paper PMC8766756, “Insights on Cancer Cell Inhibition, Subcellular Activities, and Kinase Profile of Phenylacetamides Pending 1H-Imidazol-5-One Variants” (Frontiers in Pharmacology, 2022).
Values joined by “and” are separate entries in the source; they are usually repeats but may differ in a detail not shown here. Identical values can stand only once.

How the values were obtained:
Assay in all cases: PamChip tyrosine kinase microarray
Format in all cases: biochemical
Details in all cases: 0.1 µM, HL60 lysate
Lck (P06239) = target: T1, Lck (P06239) (Homo sapiens, UniProt P06239)
T1 construct: purchased PamGene (PamChip PTK array, Upstream Kinase Analysis)
Procedure: (§1) The reproducible high potency of KIM-161 on leukemia cell lines was initially speculated to encompass Src tyrosine kinase inhibition. Even so, we also suspected that KIM-161 might be affecting other tyrosine kinases because the HL60 cells are not among the most Src-dependent highly proliferative cells ([Collins, 1987]). Therefore, a profiling of the kinase activities was performed after treatment with KIM-161 using PamChip® tyrosine kinase microarray. This analysis is based on incubation of cell lysate with 3D microarray that projects peptides specific for 143 tyrosine kinases. If a kinase is modified in the cells, it will be detected by phosphorylating its specific peptide in the microarray.
(§2) This test measured the activities of an array of tyrosine kinases of treated HL60 cells compared to the control (untreated cells) after incubation with KIM-161 for 48 h at concentrations of 0.001, 0.01, 0.1, 1.0, 10, and 50 µM. The log fold change (LFC) heat map was initially used to identify significant peptides affected at each concentration (Figure 5).
(§3) An Upstream Kinase Tool was used to generate a putative list of kinases responsible for phosphorylating the phosphosites on the PamChip®. It is an interpretation and is highly dependent on the contents of the underlying phosphorylation databases. Kinase score (Table 2) was used for ranking kinases based on their significance and specificity in terms of the set of peptides used for the corresponding kinase. Kinase statistics indicates the overall change of the peptide set that represents a certain kinase. Kinase statistics value of <0 indicates lower kinase activity in the lysate spiked with the compound and vice versa. Table 2 lists the 20 most changed kinases within treated HL60 cell lysates by 0.1 μM KIM-161.
(§4) Every compound had spiked into a leukemic (AML) cell line HL60 lysate at different concentrations (0.001, 0.01, 0.1, 1, 10, and 50 μM). In addition, DMSO had also spiked at a low concentration (2% v/v) to the HL60 lysate as the control. The samples were profiled on PamGene's tyrosine kinase (PTK) arrays in technical replicates, covering a total of 196 phosphorylation sites. The frozen leukemic HL60 cultured cell pellet was sent to PamGene. At PamGene, the cells were lysed in the presence of the lysis buffer and proteases inhibitor cocktail. The protein concentration was measured using the standard Bradford assay as per the PamGene SOPs. These lysates were further used for generating the PTK activity profiles. For spiking, KIM-161 was received in powder form and dissolved in DMSO at the PamGene facility, followed by storing it at −20°C in small aliquots. PamGene used its in-house bioinformatics toolbox in combination with other methods to generate the hypotheses of signaling pathways.

CTK (P42679) = target: T2, CTK (P42679) (Homo sapiens, UniProt P42679)
T2 construct: purchased PamGene (PamChip PTK array, Upstream Kinase Analysis)
T2 sequence (P42679 1-507): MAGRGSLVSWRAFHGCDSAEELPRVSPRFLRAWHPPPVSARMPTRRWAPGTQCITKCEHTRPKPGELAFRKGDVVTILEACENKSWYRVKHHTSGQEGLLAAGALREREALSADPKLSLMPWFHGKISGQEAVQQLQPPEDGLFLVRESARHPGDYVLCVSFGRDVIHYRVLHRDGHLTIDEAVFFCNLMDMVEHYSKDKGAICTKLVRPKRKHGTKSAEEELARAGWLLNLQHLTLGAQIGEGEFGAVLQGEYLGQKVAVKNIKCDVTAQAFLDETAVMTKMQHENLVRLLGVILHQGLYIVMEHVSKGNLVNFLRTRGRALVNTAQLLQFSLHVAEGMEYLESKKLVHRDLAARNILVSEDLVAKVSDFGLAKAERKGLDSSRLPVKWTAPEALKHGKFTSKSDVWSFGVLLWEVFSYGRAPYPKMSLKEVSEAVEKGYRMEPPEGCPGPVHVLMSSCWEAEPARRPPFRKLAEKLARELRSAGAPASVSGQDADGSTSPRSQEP
Procedure: as §1, §2, §3, §4

TRKB (Q16620) = target: T3, TRKB (Q16620) (Homo sapiens, UniProt Q16620)
T3 construct: purchased PamGene (PamChip PTK array, Upstream Kinase Analysis)
Procedure: as §1, §2, §3, §4

FAK1 (Q05397) = target: T4, FAK1 (Q05397) (Homo sapiens, UniProt Q05397)
T4 construct: purchased PamGene (PamChip PTK array, Upstream Kinase Analysis)
Procedure: as §1, §2, §3, §4

DDR1 (Q08345) = target: T5, DDR1 (Q08345) (Homo sapiens, UniProt Q08345)
T5 construct: purchased PamGene (PamChip PTK array, Upstream Kinase Analysis)
Procedure: as §1, §2, §3, §4

HER2 (P04626) = target: T6, HER2 (P04626) (Homo sapiens, UniProt P04626)
T6 construct: purchased PamGene (PamChip PTK array, Upstream Kinase Analysis)
Procedure: as §1, §2, §3, §4

Tyk2 (P29597) = target: T7, Tyk2 (P29597) (Homo sapiens, UniProt P29597)
T7 construct: purchased PamGene (PamChip PTK array, Upstream Kinase Analysis)
Procedure: as §1, §2, §3, §4

InSR (P06213) = target: T8, InSR (P06213) (Homo sapiens, UniProt P06213)
T8 construct: purchased PamGene (PamChip PTK array, Upstream Kinase Analysis)
Procedure: as §1, §2, §3, §4

HCK (P08631) = target: T9, HCK (P08631) (Homo sapiens, UniProt P08631)
T9 construct: purchased PamGene (PamChip PTK array, Upstream Kinase Analysis)
Procedure: as §1, §2, §3, §4

Abl (P00519) = target: T10, Abl (P00519) (Homo sapiens, UniProt P00519)
T10 construct: purchased PamGene (PamChip PTK array, Upstream Kinase Analysis)
Procedure: as §1, §2, §3, §4

KDR (P35968) = target: T11, KDR (P35968) (Homo sapiens, UniProt P35968)
T11 construct: purchased PamGene (PamChip PTK array, Upstream Kinase Analysis)
Procedure: as §1, §2, §3, §4

T10 sequence (P00519 whole entry): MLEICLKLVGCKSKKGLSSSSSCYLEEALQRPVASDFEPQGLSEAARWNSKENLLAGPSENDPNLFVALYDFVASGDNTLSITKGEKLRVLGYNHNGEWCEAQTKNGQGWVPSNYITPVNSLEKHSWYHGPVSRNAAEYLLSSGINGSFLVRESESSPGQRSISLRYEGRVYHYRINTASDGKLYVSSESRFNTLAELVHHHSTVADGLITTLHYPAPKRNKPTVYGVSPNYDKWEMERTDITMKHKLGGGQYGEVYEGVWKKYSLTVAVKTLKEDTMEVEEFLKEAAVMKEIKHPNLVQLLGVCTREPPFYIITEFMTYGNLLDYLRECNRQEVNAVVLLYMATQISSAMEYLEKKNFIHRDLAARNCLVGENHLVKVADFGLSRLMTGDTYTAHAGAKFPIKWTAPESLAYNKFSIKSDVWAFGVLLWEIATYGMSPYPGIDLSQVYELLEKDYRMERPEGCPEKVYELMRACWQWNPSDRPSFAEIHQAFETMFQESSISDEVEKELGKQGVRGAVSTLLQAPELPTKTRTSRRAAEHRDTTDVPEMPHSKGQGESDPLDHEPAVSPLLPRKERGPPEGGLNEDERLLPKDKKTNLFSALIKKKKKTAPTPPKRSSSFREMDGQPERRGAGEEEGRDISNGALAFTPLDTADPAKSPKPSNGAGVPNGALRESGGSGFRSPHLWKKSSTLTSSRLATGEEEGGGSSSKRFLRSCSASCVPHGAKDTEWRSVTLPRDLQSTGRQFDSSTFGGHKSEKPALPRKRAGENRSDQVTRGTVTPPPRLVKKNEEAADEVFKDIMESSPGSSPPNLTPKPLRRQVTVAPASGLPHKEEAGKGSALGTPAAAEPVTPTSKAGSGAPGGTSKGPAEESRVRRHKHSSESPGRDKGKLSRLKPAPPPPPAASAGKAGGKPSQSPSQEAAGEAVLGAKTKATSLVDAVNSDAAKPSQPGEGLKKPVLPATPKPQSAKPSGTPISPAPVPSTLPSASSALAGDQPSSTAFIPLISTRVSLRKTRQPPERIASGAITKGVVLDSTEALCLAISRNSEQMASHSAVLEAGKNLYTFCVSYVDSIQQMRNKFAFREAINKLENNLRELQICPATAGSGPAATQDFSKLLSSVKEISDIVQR
T8 sequence (P06213 28-1382): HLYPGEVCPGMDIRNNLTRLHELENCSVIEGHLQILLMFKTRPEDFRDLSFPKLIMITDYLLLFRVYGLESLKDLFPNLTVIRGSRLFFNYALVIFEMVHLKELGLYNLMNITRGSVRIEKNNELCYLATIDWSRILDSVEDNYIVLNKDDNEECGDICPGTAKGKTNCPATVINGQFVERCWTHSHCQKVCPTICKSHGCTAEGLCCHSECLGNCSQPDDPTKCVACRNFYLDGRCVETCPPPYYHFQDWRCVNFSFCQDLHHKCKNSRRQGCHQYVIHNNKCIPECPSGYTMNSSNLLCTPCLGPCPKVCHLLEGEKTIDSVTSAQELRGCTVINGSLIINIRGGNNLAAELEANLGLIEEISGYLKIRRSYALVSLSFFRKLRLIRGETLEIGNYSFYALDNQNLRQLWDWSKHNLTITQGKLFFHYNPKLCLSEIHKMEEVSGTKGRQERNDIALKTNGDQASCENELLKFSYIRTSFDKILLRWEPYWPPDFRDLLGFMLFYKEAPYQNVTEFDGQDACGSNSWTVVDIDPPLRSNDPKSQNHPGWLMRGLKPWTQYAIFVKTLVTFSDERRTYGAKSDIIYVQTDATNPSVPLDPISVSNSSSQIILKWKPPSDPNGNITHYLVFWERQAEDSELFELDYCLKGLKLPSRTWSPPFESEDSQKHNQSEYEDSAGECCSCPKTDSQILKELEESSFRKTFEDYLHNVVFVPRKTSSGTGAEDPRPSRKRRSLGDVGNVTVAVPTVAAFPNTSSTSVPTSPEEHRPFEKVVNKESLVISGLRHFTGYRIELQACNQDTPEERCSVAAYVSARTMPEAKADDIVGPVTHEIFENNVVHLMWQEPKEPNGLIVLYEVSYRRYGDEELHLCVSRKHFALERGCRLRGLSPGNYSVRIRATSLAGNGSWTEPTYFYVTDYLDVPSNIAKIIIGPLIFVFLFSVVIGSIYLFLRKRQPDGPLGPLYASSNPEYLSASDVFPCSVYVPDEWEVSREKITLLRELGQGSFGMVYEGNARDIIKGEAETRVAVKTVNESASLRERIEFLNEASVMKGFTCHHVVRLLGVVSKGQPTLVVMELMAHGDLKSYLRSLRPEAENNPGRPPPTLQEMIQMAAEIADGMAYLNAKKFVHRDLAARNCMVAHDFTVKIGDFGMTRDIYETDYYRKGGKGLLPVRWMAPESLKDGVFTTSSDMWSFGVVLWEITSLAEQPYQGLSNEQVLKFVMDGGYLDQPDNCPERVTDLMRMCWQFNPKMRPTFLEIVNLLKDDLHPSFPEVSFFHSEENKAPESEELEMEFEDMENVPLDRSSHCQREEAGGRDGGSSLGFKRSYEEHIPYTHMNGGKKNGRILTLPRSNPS
T4 sequence (Q05397 whole entry): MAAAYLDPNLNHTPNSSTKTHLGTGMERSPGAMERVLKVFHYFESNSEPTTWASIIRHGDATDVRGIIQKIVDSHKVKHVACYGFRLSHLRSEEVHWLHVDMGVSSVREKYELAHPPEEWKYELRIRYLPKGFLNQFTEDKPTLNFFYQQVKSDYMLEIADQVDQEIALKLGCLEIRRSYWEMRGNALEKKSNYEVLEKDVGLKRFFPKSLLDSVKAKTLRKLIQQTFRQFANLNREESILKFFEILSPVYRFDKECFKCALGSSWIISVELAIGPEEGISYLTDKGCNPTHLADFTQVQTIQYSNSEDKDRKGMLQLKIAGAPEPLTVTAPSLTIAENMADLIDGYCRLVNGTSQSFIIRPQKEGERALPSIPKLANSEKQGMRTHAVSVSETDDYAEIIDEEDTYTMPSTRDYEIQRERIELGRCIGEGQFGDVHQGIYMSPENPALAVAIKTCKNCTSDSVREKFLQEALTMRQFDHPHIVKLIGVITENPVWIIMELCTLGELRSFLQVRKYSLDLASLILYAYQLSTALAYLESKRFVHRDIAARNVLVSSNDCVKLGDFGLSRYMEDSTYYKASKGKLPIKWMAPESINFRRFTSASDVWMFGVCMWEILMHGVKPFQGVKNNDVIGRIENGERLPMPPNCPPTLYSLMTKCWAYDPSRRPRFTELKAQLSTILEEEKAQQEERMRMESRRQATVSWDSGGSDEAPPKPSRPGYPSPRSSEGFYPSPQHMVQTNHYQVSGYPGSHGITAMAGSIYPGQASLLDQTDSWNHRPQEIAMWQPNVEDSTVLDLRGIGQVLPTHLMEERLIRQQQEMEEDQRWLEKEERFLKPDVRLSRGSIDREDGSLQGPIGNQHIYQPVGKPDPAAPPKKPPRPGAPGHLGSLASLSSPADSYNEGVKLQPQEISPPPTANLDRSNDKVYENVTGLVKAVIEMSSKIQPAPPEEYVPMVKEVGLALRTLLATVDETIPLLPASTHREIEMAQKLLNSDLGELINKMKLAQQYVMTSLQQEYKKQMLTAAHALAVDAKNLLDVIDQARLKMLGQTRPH
T11 sequence (P35968 20-1356): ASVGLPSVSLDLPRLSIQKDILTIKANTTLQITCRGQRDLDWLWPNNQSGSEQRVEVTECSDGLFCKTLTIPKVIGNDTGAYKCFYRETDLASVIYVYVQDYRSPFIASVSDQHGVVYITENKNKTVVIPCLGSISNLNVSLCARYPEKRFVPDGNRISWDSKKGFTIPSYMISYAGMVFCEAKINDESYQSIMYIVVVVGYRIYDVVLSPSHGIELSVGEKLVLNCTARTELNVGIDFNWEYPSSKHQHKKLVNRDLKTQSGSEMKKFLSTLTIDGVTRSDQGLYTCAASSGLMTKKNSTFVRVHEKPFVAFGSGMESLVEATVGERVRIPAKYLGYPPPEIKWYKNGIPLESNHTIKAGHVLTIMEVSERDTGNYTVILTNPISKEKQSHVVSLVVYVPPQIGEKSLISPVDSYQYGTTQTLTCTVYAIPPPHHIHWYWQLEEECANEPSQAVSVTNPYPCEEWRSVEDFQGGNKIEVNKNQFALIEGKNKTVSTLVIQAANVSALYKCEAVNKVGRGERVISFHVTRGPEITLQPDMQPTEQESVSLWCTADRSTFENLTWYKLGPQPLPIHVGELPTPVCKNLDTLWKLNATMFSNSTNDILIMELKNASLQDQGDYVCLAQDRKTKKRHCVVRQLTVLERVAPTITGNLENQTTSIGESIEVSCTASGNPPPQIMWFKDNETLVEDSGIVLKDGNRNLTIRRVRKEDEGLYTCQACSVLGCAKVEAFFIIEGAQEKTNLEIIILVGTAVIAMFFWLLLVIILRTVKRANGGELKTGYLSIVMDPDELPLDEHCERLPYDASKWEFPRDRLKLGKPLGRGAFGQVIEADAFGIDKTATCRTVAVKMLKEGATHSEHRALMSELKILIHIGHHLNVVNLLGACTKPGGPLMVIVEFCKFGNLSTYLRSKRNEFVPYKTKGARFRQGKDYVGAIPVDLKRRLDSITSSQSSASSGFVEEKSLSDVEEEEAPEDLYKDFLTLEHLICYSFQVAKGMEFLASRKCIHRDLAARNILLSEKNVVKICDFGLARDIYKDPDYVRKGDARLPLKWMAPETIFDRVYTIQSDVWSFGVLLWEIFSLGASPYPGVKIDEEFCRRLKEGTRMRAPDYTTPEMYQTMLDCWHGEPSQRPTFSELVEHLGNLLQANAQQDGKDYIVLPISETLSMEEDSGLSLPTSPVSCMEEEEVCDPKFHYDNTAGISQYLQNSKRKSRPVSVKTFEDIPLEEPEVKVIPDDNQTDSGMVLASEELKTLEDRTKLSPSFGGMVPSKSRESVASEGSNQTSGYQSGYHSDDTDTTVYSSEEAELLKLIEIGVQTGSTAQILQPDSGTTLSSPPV

SMILES: COc1ccc(/C=C2\N=C(C)N(c3ccc(CC(=O)NCc4ccccc4)cc3)C2=O)cc1 [Compound 4c, (Z)-N-Benzyl-2-(4-(4-(4-methoxybenzylidene)-2-methyl-5-oxo-4,5-dihydro-1H-imidazol-1-yl)phenyl)acetamide]
- Mean Significance Score (Lck (P06239)): 2.048
- Mean Specificity Score (Lck (P06239)): 0.6669
- Mean Final score (Kinase score) (Lck (P06239); listed as KIM-161): 2.76 and 2.758
- Mean Final score (Kinase score) (CTK (P42679)): 2.298
- Mean Kinase Statistic (CTK (P42679)): -1.147
- Mean Significance Score (CTK (P42679)): 2.048
- Mean Specificity Score (CTK (P42679)): 0.2322
- Mean Final score (Kinase score) (TRKB (Q16620)): 2.487
- Mean Kinase Statistic (TRKB (Q16620)): -1.25
- Mean Significance Score (TRKB (Q16620)): 2.048
- Mean Specificity Score (TRKB (Q16620)): 0.5169
- Mean Final score (Kinase score) (FAK1 (Q05397)): 2.506
- Mean Kinase Statistic (FAK1 (Q05397)): -1.237
- Mean Significance Score (FAK1 (Q05397)): 2.048
- Mean Specificity Score (FAK1 (Q05397)): 0.5313
- Mean Final score (Kinase score) (DDR1 (Q08345)): 2.262
- Mean Kinase Statistic (DDR1 (Q08345)): -1.216
- Mean Significance Score (DDR1 (Q08345)): 1.955
- Mean Specificity Score (DDR1 (Q08345)): 0.3662
- Mean Final score (Kinase score) (HER2 (P04626)): 2.103
- Mean Kinase Statistic (HER2 (P04626)): -1.031
- Mean Significance Score (HER2 (P04626)): 1.88
- Mean Specificity Score (HER2 (P04626)): 0.08906
- Mean Final score (Kinase score) (Tyk2 (P29597)): 2.4437
- Mean Kinase Statistic (Tyk2 (P29597)): -1.248
- Mean Significance Score (Tyk2 (P29597)): 2.048
- Mean Specificity Score (Tyk2 (P29597)): 0.3814
- Mean Final score (Kinase score) (InSR (P06213)): 2.117
- Mean Kinase Statistic (InSR (P06213)): -0.9506
- Mean Significance Score (InSR (P06213)): 2.048
- Mean Specificity Score (InSR (P06213)): 0.02144
- Mean Final score (Kinase score) (HCK (P08631)): 1.871
- Mean Kinase Statistic (HCK (P08631)): -1.0936
- Mean Significance Score (HCK (P08631)): 1.7269
- Mean Specificity Score (HCK (P08631)): 0.1451
- Mean Final score (Kinase score) (Abl (P00519)): 2.191
- Mean Kinase Statistic (Abl (P00519)): -1.128
- Mean Significance Score (Abl (P00519)): 1.966
- Mean Specificity Score (Abl (P00519)): 0.1837
- Mean Final score (Kinase score) (KDR (P35968)): 2.535
- Mean Kinase Statistic (KDR (P35968)): -1.256
- Mean Significance Score (KDR (P35968)): 2.048
- Mean Specificity Score (KDR (P35968)): 0.5472
